Publication PMC8216263 (Pharmaceutical Biology, 2021)

Legend:
MDR1 = biological target: T1, MDR1 (Homo sapiens, UniProt P08183); assay: Inhibition of MDR1-mediated rhodamine 123 efflux in MDCK-MDR1 cells; format: cell-based; conditions: for inhibitory effect on efflux of MDR1-mediated rhodamine 123: GA 50–5000 μg/L, PCA 10–1000 μg/L
T1 construct: host or cells: MDCK
Source text: The human multidrug resistance protein (MDR)1-transfected Madin–Darby Canine Kidney (MDCK) cells, human breast cancer resistance protein (BCRP)-transfected MDCK cells, human organic anion transporter (OAT)1-transfected MDCK cells, OAT3-transfected second portion of proximal tubule (S2) cells, human organic cation transporter (OCT)2-transfected S2 cells, human organic anion transporting polypeptide (OATP)1B1-transfected human embryonic kidney 293 (HEK293) cells and their MOCK cells were kindly provided by Japan Fuji Biomedical Co., Ltd. (Osaka, Japan). Cells were cultured in DMEM supplemented with 10% FBS, 100 units/mL penicillin and 100 […]. All cells were incubated in a humidified atmosphere of 95% air and 5% CO2 at 37 °C. A solution of 0.25% trypsin-EDTA was used to detach the cells from flasks. Cell culture flasks, 24-well cell culture plates, and transwell polycarbonate inserts (12 mm diameter, 0.4 μm pore size) were purchased from Corning Co-star Corp. (Bedford, MA).
Inhibitory effects of GA and PCA on efflux transporters MDR1 and BCRP were investigated with the fluorogenic substrates rhodamine 123 (10 µM) and lucifer yellow (10 µM), respectively. The positive control inhibitors of MDR1 and BCRP were verapamil (10 µM) and cyclosporine (20 µM), respectively. The efflux experiments were adapted from previously reported methods with minor modifications (Reznicek et al. [2017]). Briefly, MDCK-MDR1, MDCK-BCRP and MDCK-mock cells were trypsinized and uniformly suspended in the designated volume of HBSS to provide a density of 4.0 × 10^5 cells/mL. For 0.5 mL of cell suspension and 1.5 mL of HBSS buffer medium were added in the apical and basolateral compartments of 12-well Transwell plates. After cultivation for 7 d, cells were washed twice and equilibrated for 30 min at 37 °C with the pre-warmed HBSS buffer. The integrity of cell monolayers was verified by the determination of the value of transepithelial electrical resistance (TEER) using a Millipore Millicell-ERS system (Millipore Corporation, Bedford, MA) (200–300 Ω × cm^2). An aliquot of 1.5 mL transport buffer containing probe substrates was added in the basolateral compartment to initiate the efflux in the presence or absence of GA (50, 150, 500, 1500 and 5000 μg/L), PCA (10, 30, 100, 300 and 1000 μg/L) or positive inhibitors at 37 °C. An aliquot of 0.5 mL empty transport buffer was placed in the apical compartment. After 2 h of co-incubation, 100 μL of HBSS in the apical compartment was transferred to 96-well plates. Fluorescence was measured at 485 nm (excitation) and 546 nm (emission) for rhodamine 123, and 425 nm (excitation) and 528 nm (emission) for Lucifer yellow. The final concentration of DMSO in the assay was less than 0.1%. All experiments were performed in triplicate.

OAT3 = biological target: T2, OAT3 (Homo sapiens, UniProt Q8TCC7); assay: Inhibition of OAT3-mediated 3H-ES uptake in S2-OAT3 cells; format: cell-based; conditions: GA 50–5000 μg/L, PCA 10–1000 μg/L
T2 construct: host or cells: S2 (second portion of proximal tubule) cells
T2 sequence (Q8TCC7 1-542): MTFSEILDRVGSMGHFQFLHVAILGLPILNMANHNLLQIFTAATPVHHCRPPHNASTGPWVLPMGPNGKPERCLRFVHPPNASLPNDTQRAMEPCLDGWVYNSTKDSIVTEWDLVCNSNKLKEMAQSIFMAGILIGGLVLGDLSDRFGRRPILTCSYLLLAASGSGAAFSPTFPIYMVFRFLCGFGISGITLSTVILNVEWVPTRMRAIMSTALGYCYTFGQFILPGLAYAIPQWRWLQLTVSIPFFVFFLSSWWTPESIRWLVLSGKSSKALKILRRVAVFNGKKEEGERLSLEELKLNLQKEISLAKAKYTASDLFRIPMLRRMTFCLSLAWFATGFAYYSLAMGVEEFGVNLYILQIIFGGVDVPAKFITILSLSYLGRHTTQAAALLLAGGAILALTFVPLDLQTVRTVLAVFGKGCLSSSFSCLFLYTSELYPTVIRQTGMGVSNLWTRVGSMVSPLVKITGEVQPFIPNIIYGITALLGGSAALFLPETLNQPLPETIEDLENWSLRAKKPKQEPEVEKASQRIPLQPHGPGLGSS
Procedure: Cells were cultured in DMEM supplemented with 10% FBS, 100 units/mL penicillin and 100 units/mL streptomycin. […] Cell culture flasks, 24-well cell culture plates, and transwell polycarbonate inserts (12 mm diameter, 0.4 μm pore size) were purchased from Corning Co-star Corp. (Bedford, MA).
The MDCK-OAT1, S2-OAT3, S2-OCT2 and HEK293-OATP1B1 cell lines were utilized in this study. […] Briefly, S2-OAT3, S2-OCT2 and S2-mock cells were trypsinized and uniformly suspended in the culture medium’s designated volume to provide a density of 2.0 × 10^5 cells/mL. A 1.0-mL aliquot of the cell suspension was added into each well of 24-well insert plates. HEK293-OATP1B1, MDCK-OAT1 and their mock cells were seeded in 24-well plates at a density of 1.5 × 10^5 cells/well. […] Three washes terminated the experiment with ice-cold DPBS buffer after removing the incubation buffer. Cells were lysed with 400 μL of […] sodium hydroxide solution. The cell lysate and 3.0 mL of aquasol-2 scintillation fluid were put into a scintillation flask. […] The final concentration of DMSO in the assay was less than 0.1%. All experiments were performed in triplicate.

[1] = Stability of GA and PCA in quality control samples (biological matrix); format: physicochemical, human; conditions: for Long-term Stability: 3 months at −80 °C; for Post-preparative Stability: 24 h at 4 °C, n = 3; for Bench-top Stability: 24 h at 25 °C
Procedure: The analytical method’s validation was conducted according to the FDA’s Bio-analytical Method Validation guidance (USFDA [2018]). Blank samples were obtained from six subjects for selectivity. The calibration curves were assessed by plotting the peak response ratio against the nominal concentrations of GA (1.00, 2.00, 10.0, 40.0, 100, 200, 320 and 400 μg/L) and PCA (0.50, 1.00, 5.00, 20.0, 50.0, 100, 160 and 200 μg/L). The low, medium and high QC concentrations were 3.00, 60.0 and 300 μg/L and 1.50, 30.0 and 150 μg/L for GA and PCA, respectively. Intra- and inter-day accuracy and precision were measured using six replicates of QCs in three separate batches. QCs’ acceptance criteria were ± 15% SD of nominal values, and the precision was ± 15% RSD, except for LLOQ ± 20% SD. The matrix effect and recovery were investigated using six lots of blank matrix from individual sources. Stability was assessed by spiking low and high QCs in blank samples using four conditions: for post-preparative stability (24 h at 4 °C), bench-top stability (24 h at 25 °C), long-term stability (3 months at −80 °C) and freeze-thaw stability (for three cycles).

[2] = high QC (GA 300.0, PCA 150.0 μg/L)
[3] = low QC (GA 3.00, PCA 1.50 μg/L)

T1 sequence (P08183 whole entry): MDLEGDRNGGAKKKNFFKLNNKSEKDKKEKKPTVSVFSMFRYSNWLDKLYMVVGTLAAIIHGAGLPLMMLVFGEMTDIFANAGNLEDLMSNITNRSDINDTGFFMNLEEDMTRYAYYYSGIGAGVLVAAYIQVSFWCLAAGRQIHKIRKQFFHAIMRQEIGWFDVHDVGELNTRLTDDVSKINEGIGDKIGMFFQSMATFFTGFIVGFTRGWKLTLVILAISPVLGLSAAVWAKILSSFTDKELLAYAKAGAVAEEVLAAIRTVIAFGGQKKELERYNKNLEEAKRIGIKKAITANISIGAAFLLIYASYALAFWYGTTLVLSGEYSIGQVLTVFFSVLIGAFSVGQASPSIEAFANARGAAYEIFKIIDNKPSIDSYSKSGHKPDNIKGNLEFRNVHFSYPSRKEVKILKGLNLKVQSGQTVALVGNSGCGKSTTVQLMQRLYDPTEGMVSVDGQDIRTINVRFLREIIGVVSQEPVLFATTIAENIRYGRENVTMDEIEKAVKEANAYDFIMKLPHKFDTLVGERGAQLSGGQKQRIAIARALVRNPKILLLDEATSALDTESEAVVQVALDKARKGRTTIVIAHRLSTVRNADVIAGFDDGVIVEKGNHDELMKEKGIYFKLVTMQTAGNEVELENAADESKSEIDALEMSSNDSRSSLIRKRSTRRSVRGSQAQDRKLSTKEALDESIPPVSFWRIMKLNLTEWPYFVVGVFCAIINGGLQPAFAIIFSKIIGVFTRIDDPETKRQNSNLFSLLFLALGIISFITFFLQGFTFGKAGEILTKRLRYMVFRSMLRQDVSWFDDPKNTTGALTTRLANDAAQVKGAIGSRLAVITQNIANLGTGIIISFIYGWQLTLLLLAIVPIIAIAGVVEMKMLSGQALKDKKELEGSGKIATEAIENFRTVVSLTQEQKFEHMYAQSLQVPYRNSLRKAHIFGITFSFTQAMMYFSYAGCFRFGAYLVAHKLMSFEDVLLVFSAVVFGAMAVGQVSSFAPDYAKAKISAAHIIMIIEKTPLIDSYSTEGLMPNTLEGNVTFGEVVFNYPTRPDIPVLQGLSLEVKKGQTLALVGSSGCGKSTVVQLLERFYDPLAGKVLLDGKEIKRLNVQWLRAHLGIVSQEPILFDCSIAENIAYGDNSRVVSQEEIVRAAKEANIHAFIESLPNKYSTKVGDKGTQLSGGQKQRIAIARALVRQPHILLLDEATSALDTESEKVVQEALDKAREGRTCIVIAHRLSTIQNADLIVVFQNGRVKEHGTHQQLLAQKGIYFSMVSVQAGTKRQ

Compound | inhibitory effect on efflux of MDR1-mediated rhodamine 123 (MDR1) | activity at 2 h, 6.5 µM (MDR1; human, probe rhodamine 123 (10 µM), MDCK-MDR1 cells, PCA 1000 μg/L (6.5 µM), read-out: efflux of rhodamine 123, % of control) [%] | inhibitory effect on OAT3 (OAT3) | Long-term Stability [1, 2] [%] | Long-term Stability [1, 3] [%] | Post-preparative Stability [1, 2] [%] | Post-preparative Stability [1, 3] [%] | Bench-top Stability [1, 2] [%] | Bench-top Stability [1, 3] [%] | Three freeze-thaw cycles Stability [1, 2] [%] | Three freeze-thaw cycles Stability [1, 3] [%] | efflux of rhodamine 123 compared with the control (MDR1; relatively high concentrations)
O=C(O)c1ccc(O)c(O)c1 [PCA, protocatechuic acid] | no significant inhibitory effect | ~190 | no significant inhibitory effect | 93.67 | 99.04 | 96.93 | 90.60 | 95.44 | 97.69 | 94.22 | 87.22 | 
O=C(O)c1cc(O)c(O)c(O)c1 [GA, gallic acid] | no significant inhibitory effect |  |  | 93.68 | 99.70 | 94.37 | 88.48 | 94.81 | 98.11 | 93.17 | 85.89 | significant increase
